What was measured:
[1] = test system: HSP70 and client protein (CDK4) expression in HT29 cells; test: Western blotting of HSP70 and CDK4 in HT29 cells; type: cell-based, human; details: 24 hours, various concentrations
Protocol: (§1) The cellular effects of HSP90 inhibitors can be measured using a number of molecular markers. As already mentioned, HSP90 inhibition leads to the depletion of several important cellular signalling proteins. […] Depletion is normally observed by 6 h, with maximum depletion occurring at 24 h. As well as RAF-1, depletion of several other HSP90 client proteins can be measured by immunoblotting e.g., CDK4, ERBB2. However, it is important to note that some of these proteins are cell line specific e.g., ERBB2 is expressed mainly in breast, thyroid, kidney and some ovarian tumour cell lines. Another very important marker of HSP90 inhibition is heat shock protein 70 (HSP70). A HSF-1 (heatshock factor 1) dependent increase in HSP70 levels has been reported by us and other groups (see, e.g., Whitesell et al., 1994; Clarke et al., 2000) and this effect can serve as a positive indicator of HSP90 inhibitor action. The immunoblotting method described is based on standard techniques but is described in detail for ease of reference.
Prepare as required and store at −20° C. • (4) Bicinchoninic acid (BCA) protein assay reagents (PerBio Science UK, Ltd., Chester, UK). • (5) Casein blocking buffer (0.5% casein, 0.02% thimerosal, in PBS). Store at 4° C. for up to 2 weeks. • (6) Wash buffer (phosphate buffered saline, PBS) containing 0.05% Tween 20). • (7) Tris-glycine gradient polyacrylamide precast gels (4–20%) (1 mm thick) (Novex, InVitrogen, Groningen, NL). • (8) Nitro-cellulose membrane (0.2 μm pore size) (InVitrogen, Groningen, NL). • (9) Ponceau Red stain (2% w/v in 30% TCA/30% […], Sigma Aldrich Ltd., Pool, UK). • (10) Enhanced chemiluminescence (SuperSignal) reagents (PerBio Science UK, Ltd., Chester, UK). • (11) Photographic film (Hyperfilm ECL, Amersham Pharmacia Biotech, Little Chalfont, Bucks, UK). Method
The following protocol was used: • (1) Lyse cells (approx 4×10^6) in 100 μl lysis buffer for 30 minutes on ice. When adding the lysis buffer, shear cells by pipetting up and down using a Gilson P200 pipette. • (2) Spin lysates for 10 min at 13,000 rpm at 4° C., retrieve supernatant and store at −70° C. • (3) Determine protein concentration using BCA protein assay reagents. • (4) Load samples of cell lysates (50 μg protein/lane) onto gel and separate proteins by SDS-polyacrylamide gel electrophoresis (SDS-PAGE) using a 4–20% Tris-glycine gel. • (5) Transfer proteins to nitrocellulose membrane using optimum conditions for the equipment available. For example, 150 mA for 2 h using the Mighty Small transfer system (Hoeffer TE22 Mini Tank Transphor Unit, Amersham Pharmacia Biotech, Little Chalfont, Bucks, UK). […]
(§2) Comments • (1) The protein bands are normally evaluated visually. […]

[2] = test system: HT29 human colon tumour cells; test: 96 h growth inhibition assay (SRB), HT29; type: cell-based; details: HT29, 96 h
Protocol: (§3) The growth inhibition assay employed was based on that described previously (Kelland et al., 1993). HCT116 and HT29 human colon tumour cells (American Tissue Culture Collection) were seeded into 96-well tissue culture plates (approximately 1600–2000 cells per well) and allowed to attach for 36 hours. Eight wells were treated with a single concentration from a range of compound concentrations and incubated for 96 hours. Cells were fixed using ice cold 10% trichloroacetic acid (TCA). Plates were then washed five times with water, air dried, and stained with 0.4% sulphorhodamine B (SRB) in 1% acetic acid for 10 minutes. The SRB stain was solubilised in 10 mM Tris-HCl and the absorbance measured at 540 nm using a Titertek Multiscan MCC/340 MKII plate reader (Flow Laboratories, IEC, Basingstoke, N.H.). The absorbance values correspond to total protein content and are used as a measure of cell growth.

[3] = test system: HCT116 human colon tumour cells; test: 96 h growth inhibition assay (SRB), HCT116; type: cell-based; details: HCT116, 96 h
Protocol: as §3

[4] = test system: HSP70 and RAF-1 expression in A2780 human ovarian cancer cells; test: Western blotting of HSP70 and RAF-1 in A2780 cells; type: cell-based; details: 60 nM (5×IC50), various times
Protocol: as §1
Prepare as required and store at −20° C. • (4) Bicinchoninic acid (BCA) protein assay reagents (PerBio Science UK, Ltd., Chester, UK). • (5) Casein blocking buffer (0.5% casein, 0.02% thimerosal, in PBS). […]
as §2

HSP70 in HCT116 cells = test: Cell-based ELISA for HSP70 expression; parameters: species or system human; details: HCT116, 1 μM compound
Text: Cell-based ELISA methods (see, e.g., Stockwell et al., 1999; Versteeg et al., 2000) offer several advantages for evaluating the pharmacodynamic effects of novel mechanism-based inhibitors and may be the method of choice for comparing inhibitors that are identified during the iterative process of lead identification and optimisation. The technique can be used to rapidly rank the effectiveness of compounds as well as to investigate the molecular mechanisms of their action. The increased sample throughput possible with ELISA means that compounds can be simultaneously studied in multiple replicates at different doses and exposure times. […] The assays are carried out directly on cells grown and treated in microtitre plates, thereby removing the necessity for preparing cell lysates. ELISA techniques can in theory be applied to any cellular protein or post-translational modification for which an antibody is available and results are at least semi-quantitative.
Chemicals are of the highest purity commercially available. • (1) Human colon tumour cell lines (e.g., HCT116 and HT29 from American Tissue Culture Collection, ATCC) grown in Dulbecco's modified Eagle's medium (DMEM) (CSSD, Institute of Cancer Research, London, UK) supplemented with […] glucose, 10% foetal bovine serum (FBS), 200 mM L-glutamine, and 5 ml non-essential amino acids in a humidified atmosphere of 5% CO2 at 37° C. • (2) 96 well Falcon clear microtitre tissue culture plates (BD Labware, Hospital Management and Supplies, Ltd., Northampton, UK). • (3) DMSO diluted in dH2O (8%). • (4) HSP90 inhibitors at required concentration dissolved in DMSO. • (5) Fixing solution (0.25% glutaraldehyde, 3% paraformaldehyde and 0.25% Triton-X 100) (all from Sigma Aldrich Ltd, Poole, UK). • (6) Blocking solution (5% dried milk (Marvel) in PBS) prepared daily. • (7) Anti HSP70 monoclonal antibody (SPA 810, Bioquote, York, UK). • (8) DELFIA® wash buffer, enhancement solution, assay buffer and Europium labelled anti-mouse IgG (1244–1330) (PerkinElmer Life Sciences, Milton Keynes, UK). • (9) BCA protein assay reagents (Perbio Science UK Ltd., Chester, UK). Method
Incubate at 37° for 30 min. • (6) Wash plates twice in PBS using an automated washer (Wellwash 5000 ten plate stacker-washer or Wellwash Ascent single plate washer, Thermo Labsystems, Basingstoke, UK). • (7) Block the plates by addition of blocking solution (100 μl) and incubate for 30 min. • (8) Add 100 μl primary antibody diluted to 0.95 μg/ml in PBS to each well and incubate plate for 1.5 h. Wash plates once with DELFIA® wash solution. • (9) Add 100 μl Europium labelled anti-mouse IgG diluted in DELFIA® assay buffer to 75 ng/ml and incubate for 1 hour. Wash plates once with DELFIA® wash solution as before. • (10) Add 100 μl DELFIA® enhancement solution to each well. • (11) Measure the fluorescence (615 nm) in Victor 2 1420 multilabel counter (Perkin Elmer Life Sciences, Milton Keynes, UK) using time-resolved measurement mode. • (12) Wash plates once with PBS and measure protein concentration by the addition of 200 μl BCA reagent to each well, shake for 1–2 min and incubate for 30 mins at 37° C. Read absorption at 570 nm. • (13) Express ELISA results by normalising to protein in the well (Eu counts (cpm) divided by OD@ 570 nm). Compare the effect of HSP90 inhibitors on HSP70 expression with DMSO treated controls. Comments • (1) Cells plated into 96 well plates are incubated in a plastic box to reduce evaporation from the outside wells. […]

HCT116 cells = test: Cellular protein by BCA assay after compound exposure (ELISA plates); type: cell-based, human; details: HCT116, 1 μM compound
Protocol: Incubate at 37° for 30 min. • (6) Wash plates twice in PBS using an automated washer (Wellwash 5000 ten plate stacker-washer or Wellwash Ascent single plate washer, Thermo Labsystems, Basingstoke, UK). • (7) Block the plates by addition of blocking solution (100 μl) and incubate for 30 min. • (8) Add 100 μl primary antibody diluted to 0.95 μg/ml in PBS to each well and incubate plate for 1.5 h. Wash plates once with DELFIA® wash solution. • (9) Add 100 μl Europium labelled anti-mouse IgG diluted in DELFIA® assay buffer to 75 ng/ml and incubate for 1 hour. Wash plates once with DELFIA® wash solution as before. • (10) Add 100 μl DELFIA® enhancement solution to each well. • (11) Measure the fluorescence (615 nm) in Victor 2 1420 multilabel counter (Perkin Elmer Life Sciences, Milton Keynes, UK) using time-resolved measurement mode. • (12) Wash plates once with PBS and measure protein concentration by the addition of 200 μl BCA reagent to each well, shake for 1–2 min and incubate for 30 mins at 37° C. Read absorption at 570 nm. • (13) Express ELISA results by normalising to protein in the well (Eu counts (cpm) divided by OD@ 570 nm). Compare the effect of HSP90 inhibitors on HSP70 expression with DMSO treated controls. Comments • (1) Cells plated into 96 well plates are incubated in a plastic box to reduce evaporation from the outside wells. In addition, ELISA incubation steps are carried out in a 37° C. laboratory incubator and in a moist environment e.g., plastic box lined with damp tissue paper. • (2) All additions to the microtitre plate can be achieved using a multichannel pipette or for larger numbers of plates an automated dispenser such as a Multidrop (Thermo Labsytems, Basingstoke, UK). • (3) For convenience, if the effects of compounds are being studied at several time points the ELISA can be carried out in batches, plates being stored (in a container) at 4° C. following the fixation step. In this case the plates are washed only once following fixation and again immediately before the first ELISA step (step 6 above). In addition all the plates can be stored for subsequent protein estimation. • (4) Reproducibility of both the measured Europium counts and the protein measurements was between 10–15% (CV). • (5) DELFIA® reagents (see, e.g., Hemmila and Webb, 1997) have been routinely used in cell-based ELISAs. This endpoint provides high sensitivity and the time-resolved measurements reduce interference from non-specific fluorescence. However, it is also possible to use a horse radish peroxidase second antibody conjugate and either a calorimetric (e.g., tetramethylbenzidine) or chemiluminescent reagent (e.g., ECL reagent (Amersham Pharmacia Biotech, Little Chalfont, Bucks, UK) for endpoint measurement. • (6) It is recommended that a blank consisting of second-antibody only (i.e., no first antibody) together with an appropriate first antibody control (e.g., isotype matched IgG) are included in assays during the process of optimising reagent concentrations. Growth Inhibition Assay
The effect of various compounds of the present invention on the expression of the molecular marker HSP70 was determined using the cell-based ELISA and a specific monoclonal antibody to HSP70 in HCT116 cells, as described above. Cellular protein following compound exposure was determined using BCA assay as described in the method.

| SMILES | CDK4 client protein expression (immunoblot) [1] | HSP70 expression (immunoblot) [1] | IC50 [2] | IC50 [3] | HSP70 expression (immunoblot) [4] | RAF-1 expression (immunoblot) [4] | IC50 ([2]; Homo sapiens, HT-29) | IC50 ([3]; Homo sapiens, HCT-116) | % increase in HSP70 (Normalised Europium Counts compared to DMSO controls) (HSP70 in HCT116 cells; (48 h)) | % increase in HSP70 (Normalised Europium Counts compared to DMSO controls) (HSP70 in HCT116 cells; (time not given)) | Cellular Protein (% DMSO controls) (HCT116 cells; (48 h)) | Cellular Protein (% DMSO controls) (HCT116 cells; (time not given)) |
| --- | --- | --- | --- | --- | --- | --- | --- | --- | --- | --- | --- | --- |
| C=CCNC1=C2C[C@@H](C)C[C@H](OC)[C@H](O)[C@@H](C)/C=C(\C)[C@H](OC(N)=O)[C@@H](OC)/C=C\C=C(/C)C(=O)NC(=CC1=O)C2=O [Example 17AAG, 17-allylamino-17-demethoxygeldanamycin, reference compound] | depleted | induced | 0.01 µM | 0.1 µM | induced | depleted |  |  |  |  |  |  |
| COC1=C2C[C@@H](C)C[C@H](OC)[C@H](O)[C@@H](C)/C=C(\C)[C@H](OC(N)=O)[C@@H](OC)/C=C\C=C(/C)C(=O)NC(=CC1=O)C2=O [Geldanamycin, geldanamycin, reference compound] |  |  |  |  |  |  | 0.05 µM | 0.07 µM | 270% | 169% | 46.3% | 75.3% |
